Data reported in patent US20240360143A1, “[1,2,4]TRIAZOLO[4,3-A]PYRIMIDIN-7(8H)-ONE AS MITOCHONDRIAL PYRUVATE CARRIER INHIBITORS FOR USE IN THE TREATMENT OF CANCER” (MPC THERAPEUTICS SA, priority 2021, published 2024).

How the values were obtained:
[1] = tested on: CD8 T cells (OT1 splenocytes); assay: In vitro priming of CD8 T cells (OT1 splenocytes), memory marker expression by flow cytometry; type: cell-based, mouse; settings: day 7, highest doses
Protocol: OT1 splenocytes were cultured for 3 days at a concentration of 10^6 cells per mL in RPMI medium (Gibco 61870-01) supplemented with 10% FBS, (Gibco 10270-106), 1% Penicillin/Streptomycin (Gibco 15070-063), 50 μM ß-mercaptoethanol, 1% HEPES (Gibco 15630-080), 1× Non-essential amino acids (Gibco 11140-035), 1% L-glutamine (Gibco 25030-081), 1 mM Sodium Pyruvate (Gibco 11360-039). Cells were additionally supplemented with hIL-2 100 U/ml (Glaxo-IMB), ovalbumin N4 peptide (257-264) 1 μg/ml (model peptide antigen from ovalbumin) and either different concentrations of Compound 45 or 47 or with their solvent DMSO as a control. At day 3, splenocytes were collected, washed and split, and cells were cultured for 4 additional days with 100 U/ml hIL-2 and hIL-7 (Peprotech 200-07) supplemented either with Compound 45 or 47 or DMSO. At day 7, flow cytometry analyses were performed for surface marker expression.
To evaluate the effects of MPC inhibition on T cell differentiation, OTI splenocytes were cultured in the presence of 1 μg/ml ovalbumin-derived N4 peptide, 100 IU/ml recombinant human IL-2 (rhIL-2) and the MPC inhibitors Compound 45 or 47 or control DMSO for 3 days. The cells were cultured for 4 more days in the presence of 100 IU/ml IL-2 and 10 ng/ml rhIL-7 (FIG. 1A) and the inhibitors or DMSO. When analyzing the surface expression of the central memory marker CD62L (FIG. 1B) and the pro-survival receptor CD127 (FIG. 1C) by flow cytometry on day 7, an increase in cells treated with the highest doses of compounds of the invention was observed compared to DMSO.

[2] = tested on: B16F10 tumors modified to express HER2; assay: Adoptive cell transfer of HER2-CAR T cells produced with compound, B16 melanoma expressing HER2; type: in vivo, mouse
Protocol: For each retroviral preparation, 8×10^6 Phoenix ECO cells (ATCC, CRL-3214) were plated in a T150 tissue culture flask in RPMI medium supplemented with 10% FCS, 10 mM HEPES and 50 U/ml Penicillin-Streptomycin. On the next day, cells were transfected with 21 μg of the retroviral construct with Turbofect transfection reagent (Thermo Fischer Scientific), according to the manufacturer protocol. The medium was changed daily and collected at 48 h and 72 h post transfection. 48 h and 72 h virus supernatants were pooled and sedimented at 22′000 rcf for 2 h at 4° C. Finally, retrovirus pellets were resuspended in 2 ml of full RPMI medium and divided in 8 aliquots of 250 μl each, which were snap-frozen on dry ice and stored at −80° C.
Spleens from wild type CD45.1.2 mice were smashed on a 70 μm cell strainer. CD8 T cells were purified using the Easy SepTM Mouse CD8+ T Cell Isolation Kit (StemCell) according to the manufacturer protocol. 0.5×10^6 CD8 T cells were plated in 48 well plates in 0.5 ml of complete RPMI 1640 medium supplemented with 10% FCS, antibiotics and 50 IU/ml of recombinant human IL-2, and exposed to either DMSO or 20 μM Compound 45. Mouse T-cells were activated with Activator CD3/CD28 Dynabeads (Gibco) at a ratio of 2 beads per cell. Retroviral infection was conducted at 37° C. for 24 h. Untreated 48 well plates were coated for 24 h with 20 μg/ml of recombinant human fibronectin (Takara Clontech) at 4° C., followed by PBS 2% BSA for 30 min at RT and finally washed with PBS. One aliquot of concentrated retroviruses was plated in each fibronectin-coated 48 well plates and centrifuged for 90 min at 2′000 rcf and 32° C. Then, 0.5×10^6 of 24 h-activated CD8 T cells were added on top of the viruses and spun for 10 min at 400 rcf and 32° C. On day 3, the medium was replaced with 10 IU/ml recombinant human IL-2, 10 ng/ml recombinant human IL-7 and 10 ng/ml recombinant human IL-15, containing either DMSO or 20 μM Compound 45. Cells were then split every second day.
CD45.2 C57BL/6 mice were engrafted subcutaneously with 4×10^5 B16F10 tumors modified to express HER2. Six days later, mice were lymphodepleted with 100 mg/kg cyclophosphamide (Sigma Aldrich, C7397) injected i.p., and homogeneous groups were constituted with regard to tumor volume. T cells (5×10^6) were adoptively transferred i.v. on the next day. Tumor volumes were measured three times a week with a caliper and calculated using the formula: V=π×[d2×D]/6, where d is the minor tumor axis and D is the major tumor axis. Tumors were collected and separated from skin. Single cell suspensions were obtained with the Mouse Tumor Dissociation Kit (Miltenyi, 130-096-730) according to the manufacturer protocol. Spleen and draining lymph node were smashed on a 70 μm cell strainer. Single cell suspensions were stained with antibodies before flow cytometry analysis.
Polyclonal CD8 T cells from wild type mice were activated in the presence of DMSO or 20 μM Compound 45 and then retrovirally transduced with a HER2-CAR construct (FIG. 4A). […] No difference in percentages of memory precursor effector T cells could be detected (FIG. 4F) and TCF1-expressing T cells (FIG. 4G). […] More tumor-infiltrating Compound 45-treated CAR T cells expressed TCF1 (FIG. 5H). […] Finally, fewer Compound 45-treated CAR T cells were expressing the inhibitory molecules PD1 and TIM3, indicating a less exhausted phenotype (FIG. 5K).

Structure (SMILES): O=c1cc(Cc2ccccc2)n2c(SCc3c(F)cccc3Cl)nnc2[nH]1 [Compound 45, 5-benzyl-3-[(2-chloro-6-fluorobenzyl)sulfanyl][1,2,4]triazolo[4,3-a]pyrimidin-7 (8H)-one]
- cells positive for central memory marker CD62L ([1]; vs DMSO (FIG. 1B)): increase
- cells positive for pro-survival receptor CD127 ([1]; vs DMSO (FIG. 1C)): increase
- tumor growth ([2]; HER2CAR T cells produced with 20 μM compound, 5×10^6 cells i.v. (FIGS. 4B and 4C)): significantly suppress
- number of CAR T cells in blood ([2]; blood 12 days after ACT (FIG. 4D)): no difference
- percentage of HER2CAR T cells forming short-lived effector T cells ([2]; blood 12 days after ACT (FIG. 4E)): significantly reduced
- percentages of memory precursor effector T cells ([2]; blood 12 days after ACT (FIG. 4F)): No difference
- percentages of TCF1-expressing T cells ([2]; blood 12 days after ACT (FIG. 4G)): No difference
- central memory T cell differentiation ([2]; draining lymph node (FIG. 5B)): Neither in the draining lymph node nor in the spleen could be observed a difference
- HER2CAR T cells expressing TCF1 ([2]; draining lymph node (FIG. 5C)): Neither in the draining lymph node nor in the spleen could be observed a difference
- engraftment of HER2CAR T cells in the spleen ([2]; spleen (FIG. 5D)): increase was significant
- central memory T cell differentiation ([2]; spleen (FIG. 5E)): Neither in the draining lymph node nor in the spleen could be observed a difference
- HER2CAR T cells expressing TCF1 ([2]; spleen (FIG. 5F)): Neither in the draining lymph node nor in the spleen could be observed a difference
- CAR T cells in tumors ([2]; tumor (FIG. 5G)): significantly more
- tumor-infiltrating CAR T cells expressing TCF1 ([2]; tumor (FIG. 5H)): More
- CAR T cells expressing the inhibitory molecules PD1 and TIM3 ([2]; tumor (FIG. 5K)): fewer
- progenitor exhausted T cells (TCF1-positive) ([2]; tumor, co-expression of TCF1 with PD1 (FIG. 5I)): more
- terminally differentiated exhausted T cells (TCF1-negative) ([2]; tumor, co-expression of TCF1 with PD1 (FIG. 5J)): less
- engraftment of HER2CAR T cells in the tumor-draining lymph nodes ([2]; tumor-draining lymph nodes (FIG. 5A)): trend towards an increased engraftment
